Where “and” joins values, the source holds several entries; their conditions need not be identical. Equal entries are not always repeated.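 Growth conditions: 96-well plates. Treatment: test compound, 48 hours, 5 concentrations. Analysis: linear interpolation between bracketing concentrations; unreached endpoints set to highest concentration. GI50 marks 50% less growth. The concentration for full growth arrest is given as TGI.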
The molecules below were run on MDA-MB-468 breast (assay: DTP human tumour cell line panel, 48 h).

Row | SMILES | GI50 | TGI
1 | CCCS(=O)(=O)c1nc(NC2CC2)cc(-c2ccc3c(ccn3C3CC(C)(C)NC(C)(C)C3)c2)n1 | 1750 nM | 3.61 µM
2 | NCCN1CCN(c2nccc(-c3ccc4ccccc4c3)n2)CC1 | 1770 nM | 3.42 µM
3 | CN1CCN(Cc2ccc(NC(=O)c3ccc(C(C)(C)C)c(C#Cc4cnc5cccnn45)c3)cc2C(F)(F)F)CC1 | 1980 nM | 3.77 µM
4 | COc1ccc(NC2=C(Br)C(=O)C(C)=C(C)C2=O)cc1 | 1560 nM | 3.16 µM
5 | COc1ccc(/C=N/Nc2nc3ccccc3c(=O)n2-c2ccccc2)c(OCc2ccccc2)c1 | > 100000 nM | > 100 µM
6 | Cc1sc(C)c(-c2ccc(CO)o2)c1-c1ccc(CO)o1 | 17.8 nM | 0.0501 µM
7 | Cc1ccc(-c2nc(C(Cl)Cl)n3nc(-c4ccccc4)cc3n2)cc1 | 239 nM | 0.612 µM
8 | CCCNCc1cc(C)cc2c1nc(N1CCNCC1)n2Cc1cc(C)c(F)c(C)c1 | 1880 nM | 3.71 µM
9 | O=C(Nc1cc(-c2ccccc2)[nH]n1)c1ccc(Cl)cc1 | > 100000 nM | > 100 µM
10 | N#Cc1c(-c2ccccc2)nc2c(c(-c3ccccc3)nn2-c2ccccc2)c1-c1ccc(O)cc1 | 2410 nM | 5.57 µM
11 | CCN(Cc1c(F)cccc1F)c1ccc(CO)c(Cl)c1 | 14.8 nM | 0.033 µM
12 | CCOC(=O)[C@@H](C)C[C@H](Cc1ccccc1)NC(=O)c1csc([C@@H](C[C@H](C(C)C)N(C)C(=O)[C@@H](NC(=O)[C@H]2CCCCN2C)C(C)(C)C)OC(C)=O)n1 | < 1.67 nM | 0.0752 µM
13 | CN(C)c1nc(-c2cccs2)n2nc(-c3ccc(Cl)cc3)cc2n1 | 3100 nM | > 100 µM
14 | Cc1ncc(NC(=O)c2ccc(CN3CCN(C)CC3)c(C(F)(F)F)c2)cc1Nc1nccc(-c2cccnc2)n1 | 14600 nM | 29.4 µM
15 | COCC(=O)OC1CCn2c1nc1c2C(=O)C(C)=C(NC(C)=O)C1=O (configuration not stated) | 270 nM | 0.894 µM
16 | Cc1noc(C)c1-c1ccc2[nH]c(=O)n3c2c1OC[C@@H]3c1ccccn1 | 719 nM | > 91.3 µM
17 | CCCCCCNc1nc(NCCCCCC)c2[nH]c(NCCCCCC)nc2n1 | 1170 nM | 5.46 µM
18 | CNC(=O)c1cc(Oc2ccc(NC(=O)Nc3ccc(Cl)c(OC(F)(F)F)c3)c(F)c2)ccn1 | 1020 nM | 4.77 µM
19 | CCCCCC(=O)Oc1ccc(/C(=C(\C)c2ccc(OC)cc2)c2ccc(OCCN3CCCCC3)cc2)cc1 | 4020 nM | 15.8 µM
20 | CCn1c(-c2nonc2N)nc2ccc(F)cc21 | > 25000 nM | > 25 µM
21 | O=P(O)(O)C(O)(Cn1ccnc1)P(=O)(O)O | > 87300 nM | > 100 µM
22 | C=C(C)[C@@H]1CC[C@@]2(C(=O)O)CC[C@]3(C)C(CCC4[C@@]5(C)CCC(OS(=O)(=O)c6ccccc6)C(C)(C)C5CC[C@]43C)C12 (some centres not stated) | 2760 nM | 22.6 µM
23 | COc1cc(-c2cn(C)c(=O)c(C)c2C)cc(OC)c1CN1CC[C@H](N2CCN(c3ccc(N[C@H]4CCC(=O)NC4=O)cc3F)CC2)C(F)(F)C1 | 7260 nM | 22.3 µM
24 | CCCSc1cc(Cl)nc(N)n1 | 85800 nM | > 100 µM
25 | O=C(N/N=C/c1ccc(Cl)cc1Cl)c1ccccc1Nc1cccc(C(F)(F)F)c1 | 2880 nM | 12 µM

Row | SMILES | GI50 | TGI
26 | CCN(CCO)CCNc1ccc(C)c2sc3cc(Cl)ccc3c(=O)c12 | 1290 nM | 2.78 µM
27 | FC(F)(F)c1ccc2c(Nc3cccc(C4CC(c5ccccc5)=NN4c4ccc(Cl)cc4)c3)ccnc2c1 (configuration not stated) | 3020 nM | 16.6 µM
28 | CNC(=O)c1cn(C[C@H](F)CCc2ccc(NC(=O)Cc3cc(OC4CC(F)(F)C4)cc(C)n3)nn2)nn1 | > 100000 nM | > 100 µM
29 | C=CC(=O)N1CCN(c2ncnc3c(F)c(-c4c(O)cccc4F)c(Cl)cc23)CC1 | 10200 nM | 31.1 µM
30 | C=CC(=O)Nc1cccc(Nc2nc(Nc3ccc(OCCOC)cc3)ncc2F)c1 | 976 nM | 3.89 µM
31 | CN(C)CCCNc1c2ccc(Cl)cc2nc2c1oc1ccccc12 | 3320 nM | 14 µM
32 | CNc1nc(NC2CCCC2)nc(Sc2ccc(OC)cc2)n1 | > 10000 nM | > 10 µM
33 | COc1ccc2c(c1)C=CC(C#N)N2C(=O)c1ccccc1 (configuration not stated) | < 10 nM | > 100 µM
34 | CC(=O)O[C@H]1C(=O)[C@@]2(C)[C@H]([C@H](OC(=O)c3ccccc3)[C@]3([O-])C[C@H](OC(=O)[C@H]([O-])[C@@H](NC(=O)c4ccccc4)c4ccccc4)C(C)=C1C3(C)C)[C@]1(OC(C)=O)CO[C@@H]1C[C@@H]2[O-].[Fe+3] | 35.1 nM and 36.3 nM | 
35 | CNC(=O)c1ccc(-c2cnc3ncc(Cc4ccc5ncccc5c4)n3n2)cc1F | 92300 nM | > 100 µM
36 | CS(=O)(=O)Nc1ccc(-c2ccc3c(NC(=O)C4CC4)n[nH]c3c2)cc1 | 7200 nM | > 23.7 µM
37 | CC(=O)n1c(-c2ccc(Cl)cc2)nc2c(c1=O)C(c1ccc(Cl)cc1)c1sc3c(Cl)cccc3c1O2 (configuration not stated) | 225 nM | 0.56 µM
38 | C=C1C(=O)O[C@H]2[C@H]1CC/C(COC(=O)c1cc3cc(OC)ccc3[nH]1)=C\CC[C@@]1(C)O[C@@H]21 | 1130 nM | 2.85 µM
39 | CC(=O)Nc1cc(F)cc(-c2ccc3[nH]cc(-c4ccccc4)c3n2)c1 | 2090 nM | 6.4 µM
40 | C=CCOc1c(Br)cc(Br)cc1Br | 26400 nM | > 100 µM
41 | CC1=C(C)C(=O)O[C@@H]([C@](C)(O)[C@]2(O)CC[C@@]3(O)[C@@H]4C[C@H]5O[C@]56CC=CC(=O)[C@]6(C)[C@H]4CC[C@]23C)C1 | 119 nM | 0.725 µM
42 | CC(C)(C)OC(=O)c1ccc(NCc2cc(O)ccc2O)cc1 | 1510 nM | 3.45 µM
43 | CC(C)(C)c1nc2c(o1)C(=Nc1ccc(F)cc1)c1ccccc1C2=O | 5840 nM | > 100 µM
44 | O=c1cc(-c2ccccc2F)[nH]c2cc3c(cc12)OCO3 | 6390 nM | > 100 µM
45 | COc1ccc(/C=N/NC(=O)c2[nH]c3ccc(Br)cc3c2-c2ccccc2)s1 | 58.6 nM | 3.78 µM
46 | O=C1c2c(c3c4ccc(Br)cc4oc3c3[nH]c4ccccc4c23)C(=O)N1O | 2380 nM | 8.36 µM
47 | CCNCCOc1ccc(/C(=C(/CC)c2ccc(Cl)cc2)c2ccc(OCCCN(C)C)cc2)cc1 | 1520 nM | 5.35 µM
48 | Oc1ccc(Cc2ccccc2)c2cccnc12 | 1920 nM | 5.51 µM
49 | Nc1nc(Nc2ccc(OCc3cccc(F)c3)cc2)c2c(n1)[nH]c1ccc(O)cc12 | 1980 nM | 5.36 µM
